# What was measured:
# [1] = system: mouse neural stem cells (NSCs); assay: Promoting activity in oligodendrocyte differentiation of mouse neural stem cell (GalC immunostaining); type: cell-based; conditions: for Gal/C positive ratio Average value: day 10, N=5
# Experimental: To NSC basal medium (100 mL) included in this product, B27 (1 mL), Penicillin-Streptomycin (1 mL), Glutamine (1 mL), bFGF (20 μL), EGF (10 μL), and Heparin (100 μL) were added to prepare the growth medium. Mouse neural stem cells were reconstituted in a T-25 flask using the growth medium and proliferated as a neurosphere by suspension culture. The cells were expanded by passaging at a split ratio=1:2 in a CO2 incubator (5% CO2, 37° C., wet) to obtain the required number of cells. ACCUTASE (Innovative Cell Technologies, Cat. No. AT104) was used as the passage reagent.
# The differentiation medium containing test substance was prepared to a target final concentration by diluting a solution of 20 mM compound in DMSO to 10-fold with DMSO and then to 2×10^5-fold with the differentiation medium. Additive-free differentiation medium for control was prepared by diluting DMSO to 2×10^5-fold with the differentiation medium to be a final concentration of 5×10^−5%.
# The mouse neural stem cells were seeded on a poly-L-Lysine/Laminin-coated 96-well plate at a cell density of 2.0×10^4 cells/100 μL/well using the differentiation medium and the culture was started in a CO2 incubator (5% CO2, 37° C., wet). The next day, the medium was replaced with the differentiation medium containing a test substance or an additive-free differentiation medium for control, and evaluation of the test substance (N=5) was started (day 0). The medium was replaced every other day by 60% of the medium in the wells. On day 10, cells were fixed and immunostained.
# After the medium was removed, the cells were fixed by adding 100 μL of 4% paraformaldehyde-PBS and being incubated at room temperature for 30 minutes. Next, the cells were washed 3 times with PBS, 100 μL of 5% Goat Serum/PBS was added thereto, and the mixture was incubated at room temperature for 30 minutes to perform blocking and membrane permeation treatment. […] After the cells were washed 3 times with PBS, 100 μL of PBS was added to the wells, and the wells were photographed with fluorescence microscopy. Images were taken under the same condition in all wells, and blue fluorescence and green fluorescence were simultaneously photographed.
# Using the hybrid cell counting software provided in the fluorescence microscope (Keyence, BZ-X700), co-localized spots of green fluorescence and blue fluorescence were extracted, and the number of these spots was defined as the total number of GalC-positive cells, and the oligodendrocyte differentiation ratio was calculated by the following calculation:the total number of GalC-positive cells/the number of nuclei (number of blue fluorescence spots). A significant difference test was performed by t-test between the additive-free group and the sample-added group.
# human VDR = target: T1, human VDR (Homo sapiens, UniProt P11473); assay: Evaluation of VDR transcription activity in human osteoblasts (HOS cells), luciferase reporter; conditions: Activity (EC50, VDR transcription activity), HOS cells transfected with human VDR, human RXRα and DR3 luciferase reporter; 21 hours
# T1 sequence (P11473 1-427): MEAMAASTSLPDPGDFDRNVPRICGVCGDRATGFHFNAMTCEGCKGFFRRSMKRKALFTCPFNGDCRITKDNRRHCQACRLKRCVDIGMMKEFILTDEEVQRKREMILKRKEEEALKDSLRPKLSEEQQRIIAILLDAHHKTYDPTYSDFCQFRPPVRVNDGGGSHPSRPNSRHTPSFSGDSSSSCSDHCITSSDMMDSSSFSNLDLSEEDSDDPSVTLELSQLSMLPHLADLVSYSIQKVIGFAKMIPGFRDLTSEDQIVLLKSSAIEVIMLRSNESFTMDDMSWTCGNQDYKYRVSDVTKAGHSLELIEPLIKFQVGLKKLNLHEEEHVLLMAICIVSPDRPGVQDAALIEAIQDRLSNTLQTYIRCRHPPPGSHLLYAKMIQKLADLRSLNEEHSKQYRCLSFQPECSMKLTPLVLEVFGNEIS
# T1 sequence (P19793 1-462 partner): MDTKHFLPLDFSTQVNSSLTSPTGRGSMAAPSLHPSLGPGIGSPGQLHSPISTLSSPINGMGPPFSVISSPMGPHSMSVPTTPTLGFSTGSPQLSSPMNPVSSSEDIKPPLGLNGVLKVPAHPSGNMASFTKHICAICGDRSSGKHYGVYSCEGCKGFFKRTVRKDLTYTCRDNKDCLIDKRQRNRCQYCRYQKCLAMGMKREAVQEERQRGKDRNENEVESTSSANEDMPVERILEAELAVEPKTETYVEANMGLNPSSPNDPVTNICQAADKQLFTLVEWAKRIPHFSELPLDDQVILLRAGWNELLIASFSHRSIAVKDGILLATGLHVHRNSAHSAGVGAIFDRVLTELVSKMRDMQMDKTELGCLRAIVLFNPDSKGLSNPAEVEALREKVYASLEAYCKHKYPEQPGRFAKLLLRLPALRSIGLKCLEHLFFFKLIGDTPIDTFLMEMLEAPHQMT
# [2] = system: rat oligodendrocyte progenitor cells; assay: Promotive activity of rat oligodendrocyte progenitor cell differentiation-1 (MBP gene expression, mRNA); type: cell-based; conditions: 4 days, MBP/β actin mRNA; for activation at 1 µM: Rattus norvegicus, Oligodendrocyte progenitor cell, 96 h, read-out: promotive activity at T3 base (MBP gene expression; DMSO 0%, T3 100%)
# How it was run: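 Primary OPCs from 1-day-old SD rat forebrain, isolated by shaking off mixed glial cultures and seeded at 2×10^3 cells/well in B27/CNTF (10 ng/mL) differentiation medium with compound. MBP mRNA measured by one-step TaqMan real-time PCR and expressed as MBP/β-actin ratio.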
# [3] = system: rat oligodendrocyte progenitor cells; assay: Promotive activity of rat oligodendrocyte progenitor cell differentiation-2 (immunostaining of MBP); type: cell-based; conditions: vitamin D derivative 2 μM, T3 30 nM, 4 days
# How it was run: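 Vitamin D derivatives scored as symbols for promoting differentiation, read out by MBP immunostaining. OPCs taken from supernatant after about 22 h shaking (37 °C, 200 rpm) in separation medium.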
# [4] = Evaluation of brain penetration in mice (blood and brain concentration at brain Cmax); type: in vivo, mouse; conditions: 1 mg/kg single oral dose, C57BL/6J mice; for Concentration in blood (mean ± SD) at brain Cmax / Concentration in brain (mean ± SD) at brain Cmax: n=3; for Kp: male, C57BL/6J, mouse, brain/plasma, po, 1 mg/kg, read-out: Concentration in brain/in blood ratio at brain Cmax
# How it was run: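 Male C57BL/6J mice (8 weeks, n=3) dosed orally once at 1 […] mg/kg; plasma and brain collected at 0.25, 0.5, 1, 2, 4 and 8 h. Compound extracted with acetonitrile from brain homogenate and plasma, quantified by LC/MS/MS.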
Structure (SMILES),EC50 (human VDR) [nM],Concentration in blood (mean ± SD) at brain Cmax [4] [nM],Concentration in brain (mean ± SD) at brain Cmax [4] [pmol/g],Kp [4],Gal/C positive ratio Average value ([1]; 10 nM),Gal/C positive ratio Average value ([1]; 100 nM),Gal/C positive ratio Average value ([1]; 1000 nM),activation at 1 µM [2] [%],Mean (number of MBP-positive cells/number of Hoechst33342-positive cells) ([3]; Test 1),Mean (number of MBP-positive cells/number of Hoechst33342-positive cells) ([3]; Test 2),"promotive activity at T3 base (MBP gene expression; DMSO 0%, T3 100%) ([2]; 1 μM) [%]",promoting activity in a Gal/C-positive oligodendrocyte differentiation ([1]; 1000 nM) [times]
"C=C1[C@H](O)CC(=C/C=C2\CCC[C@]3(C)[C@@H]([C@H](C)CN4CC[C@H](CC(F)F)C4)CC[C@@H]23)C[C@H]1O [Compound B040, (1R,3R)-5-(2-((1R,3aS,7aR,E)-1-((S)-1-((R)-3-(2,2-difluoroethyl)pyrrolidin-1-yl)propan-2-yl)-7a-methyloctahydro-4H-inden-4-ylidene)ethylidene)-2-methylenecyclohexane-1,3-diol]",1 to 10,70 ± 10,153 ± 35,2.18,,,,≥ 20,0.59,,,
"C=C1[C@H](O)CC(=C/C=C2\CCC[C@]3(C)[C@@H]([C@H](C)CN4CC[C@@H](C(F)F)C4)CC[C@@H]23)C[C@H]1O [Compound B027, (1R,3R)-5-(2-((1R,3aS,7aR,E)-1-((S)-1-((R)-3-(difluoromethyl)pyrrolidin-1-yl)propan-2-yl)-7a-methyloctahydro-4H-inden-4-ylidene)ethylidene)-2-methylenecyclohexane-1,3-diol]",1 to 10,126 ± 14,414 ± 40,3.29,,,,≥ 20,0.29,,,
"C=C1[C@H](O)CC(=C/C=C2\CCC[C@]3(C)[C@@H]([C@H](C)CN4CC[C@H](OCC(F)F)C4)CC[C@@H]23)C[C@H]1O [Compound B055, (1R,3R)-5-(2-((1R,3aS,7aR,E)-1-((S)-1-((S)-3-(2,2-difluoroethoxy)pyrrolidin-1-yl)propan-2-yl)-7a-methyloctahydro-4H-inden-4-ylidene)ethylidene)-2-methylenecyclohexane-1,3-diol]",1 to 10,309 ± 17,327 ± 28,1.06,,,,≥ 20,,0.56,,
"C[C@H](CCN1CCOC[C@@H]1C)[C@H]1CC[C@H]2/C(=C/C=C3C[C@@H](O)C[C@H](O)C3)CCC[C@]12C [Compound D043, (1R,3R)-5-(2-((1R,3aS,7aR,E)-7a-methyl-1-((R)-4-((S)-3-methylmorpholino)butan-2-yl)octahydro-4H-inden-4-ylidene)ethylidene)cyclohexane-1,3-diol]",,,,,12.81,12.27,16.09,≥ 20,,,,
"C=C1/C(=C\C=C2/CCC[C@]3(C)[C@@H]([C@H](C)CCCC(C)(C)O)CC[C@@H]23)C[C@@H](O)C[C@@H]1O [1α,25-dihydroxyvitamin D3, reference compound]",,,,,,,,,,,0,1.5
"C[C@H](CN1CCOCC1)[C@H]1CC[C@H]2/C(=C/C=C3C[C@@H](O)C[C@H](O)C3)CCC[C@]12C [Compound D004, (1R,3R)-5-(2-((1R,3aS,7aR,E)-7a-methyl-1-((S)-1-morpholinopropan-2-yl)-octahydro-4H-inden-4-ylidene)ethylidene)cyclohexane-1,3-diol]",,,,,12.61,15.55,16.76,,,,,

# Continued, in another order:
EC50 (human VDR) [nM],Concentration in blood (mean ± SD) at brain Cmax [4] [nM],Concentration in brain (mean ± SD) at brain Cmax [4] [pmol/g],Kp [4],Structure (SMILES),Gal/C positive ratio Average value ([1]; 10 nM),Gal/C positive ratio Average value ([1]; 100 nM),Gal/C positive ratio Average value ([1]; 1000 nM),activation at 1 µM [2] [%],Mean (number of MBP-positive cells/number of Hoechst33342-positive cells) ([3]; Test 1),Mean (number of MBP-positive cells/number of Hoechst33342-positive cells) ([3]; Test 2),"promotive activity at T3 base (MBP gene expression; DMSO 0%, T3 100%) ([2]; 1 μM) [%]",promoting activity in a Gal/C-positive oligodendrocyte differentiation ([1]; 1000 nM) [times]
10 to 100,,,,"C[C@H](CCN1CCOC[C@H]1C)[C@H]1CC[C@H]2/C(=C/C=C3C[C@@H](O)C[C@H](O)C3)CCC[C@]12C [Compound D042, (1R,3R)-5-(2-((1R,3aS,7aR,E)-7a-methyl-1-((R)-4-((R)-3-methylmorpholino)butan-2-yl)octahydro-4H-inden-4-ylidene)ethylidene)cyclohexane-1,3-diol]",12.25,14.27,15.80,,,,,
1 to 10,,,,"C[C@H](CCCN1CCOCC1)[C@H]1CC[C@H]2/C(=C/C=C3C[C@@H](O)C[C@H](O)C3)CCC[C@]12C [Compound D044, (1R,3R)-5-(2-((1R,3aS,7aR,E)-7a-methyl-1-((R)-5-morpholinopentan-2-yl)octahydro-4H-inden-4-ylidene)ethylidene)cyclohexane-1,3-diol]",9.10,8.22,12.37,≥ 20,,,,
10 to 100,,,,"C=C1/C(=C\C=C2/CCC[C@]3(C)[C@@H]([C@H](C)CCN4CCOC[C@@H]4C)CC[C@@H]23)C[C@@H](O)CC1O (stereo in doubt) [Compound D045, (1R,3R,Z)-5-(2-((1R,3aS,7aR,E)-7a-methyl-1-((R)-4-((S)-3-methylmorpholino)butan-2-yl)octahydro-4H-inden-4-ylidene)ethylidene)-4-methylenecyclohexane-1,3-diol]",11.46,12.01,14.93,,,,,

# From US20230348376A1 (TEIJIN PHARMA LIMITED, priority 2020, published 2023)
